Measurements from patent US12428433B2, “Fluorine-containing heterocyclic derivatives with macrocyclic structure and use thereof” (ScinnoHub Pharmaceutical Co., Ltd, priority 2019, dated 2025).

Tests used:
[1] = Stability test in liver microsomes, mouse; format: in vitro ADME; details: for half-life at 1 μM: 0.5 mg/mL
Method: A stability of the compound of the present application in liver microsomes of human, rat and mouse was measured.
3.1 A buffer and a liver microsome were prepared into an incubation solution according to the following table:
3.2 The following two experiments were carried out respectively: a) incubation system added with coenzyme factor NADPH: 25 μL of NADPH (10 mM) was added into an incubation solution (mainly comprising a liver microsome and a phosphate buffer), so that final concentrations of the liver microsome and the NADPH were 0.5 mg/mL and […] respectively; and b) incubation system without coenzyme factor NADPH: 25 μL of phosphate buffer (100 mM) was added into the incubation solution, so that the final concentration of the liver microsome was 0.5 mg/mL. The incubation systems above were preheated at 37° C. for 10 minutes respectively.
3.3 2.5 μL of positive control compound or a tested compound solution (100 μM) was added into the incubation systems described in “step 3.2” above respectively for reaction, and the positive control compound was verapamil (purchased from Sigma), so that a final concentration of the tested compound of the present application or the positive control compound was 1 μM. The incubation solution added with the compound was incubated in water at 37° C. in batches.
3.4 30 μL of aliquot was taken from a reaction solution after 0.5 minute, 5 minutes, 15 minutes, 30 minutes and 45 minutes respectively, and the reaction was terminated by adding 5 times volume of cold acetonitrile containing 200 nM caffeine and 100 nM tolbutamide. The aliquot was centrifuged at a gravity acceleration of 3,220 g for 40 minutes, and 100 μL of supernatant was mixed with 100 μL of ultrapure water, and then used for LC-MS/MS analysis.
A peak area was determined by an extracted ion chromatogram. A slope value k was determined by linear regression of a remaining percentage of a parent drug relative to […] an incubation time curve.
In-vitro half-life periods (t1/2) were respectively calculated and determined according to the slope value, and an average value of the in-vitro half-life periods was converted into an in-vitro intrinsic clearance rate (CLint, represented by μL/min/mg protein).

MDR1 (P-gp) = assay: Bidirectional permeability study on MDCK-MDR1 cell line; format: in vitro ADME; details: dog; for efflux ratio at 2 h, 1 μM: MDCK-MDR1, pH 7.4, read-out: Excretion ratio = Papp (B-A)/Papp (A-B); for Papp A→B at 2 h, 1 μM / Papp B→A at 2 h, 1 μM: pH 7.4, MDCK-MDR1, 1 μM
Method: MDCK-MDR1 cells were purchased from Netherlands Cancer Institute, and cells between 10 and 20 generations were used.
1) Before cell inoculation, 50 μL of cell medium was added into each well of an upper chamber of Transwell, and […] of cell medium was added into a lower culture plate. The culture plate was placed in an incubator at 37° C. under 5% CO2 for incubation for 1 hour, and then could be used for inoculating cells.
2) The MDCK-MDR1 cells were resuspended with the medium, so that a final concentration was 1.56×10^6 cells/mL. A cell suspension was added into an upper chamber of a 96-well Transwell culture plate according to 50 μL per well. The incubator was set at 37° C. under 5% CO2, and was ensured to have a relative humidity of 95% for culturing for 4 days to 8 days. The medium was replaced 48 hours after inoculation, the culturing lasted for 4 days to 8 days, and the medium was replaced every other day.
4) Calculation of resistance value: measured resistance value (ohms)×film area (cm^2)=TEER value (ohm cm^2), and if the TEER value was less than 42 ohms cm^2, the well could not be used for a penetration experiment.
1) The MDCK-MDR1 Transwell culture plate was taken from the incubator. The cell monolayer film was moistened and washed twice with a preheated HBSS (25 mM HEPES, pH 7.4) buffer, and incubated at 37° C. for 30 minutes.
2) A stock solution of the control compound and the test compound was diluted in DMSO to obtain a 200 μM solution, and then diluted with HBSS (10 mM HEPES, pH 7.4) to obtain a 1 μM working solution. A final concentration of DMSO in the incubation system was 0.5%.
3) A transfer rate of the compound from a top end to a base end was measured. 125 μL of working solution was added into the upper chamber (top end), then 50 μL of sample solution was immediately transferred from a lower chamber (base end) to a 96-well plate filled with 200 μL of acetonitrile containing an internal standard as a 0-minute administration sample (A-B) for detection, and 235 μL of HBSS (25 mM HEPES, pH 7.4) buffer was added into the lower chamber. The internal standard contained 100 nM alprazolam, 200 nM caffeine and 100 nM tolbutamide. The 50 μL of sample solution transferred above was vortexed at a speed of 1,000 rpm for 10 minutes.
4) A transfer rate of the compound from the base end to the top end was measured. 285 μL of working solution was added into the lower chamber (base end), then 50 μL of sample solution was immediately transferred from the upper chamber (top end) to a 96-well plate filled with 200 μL of acetonitrile containing an internal standard as a 0-minute administration sample (B-A) for detection, and 75 μL of HB SS (25 mM HEPES, pH 7.4) buffer was added into the upper chamber. The internal standard contained 100 nM alprazolam, 200 nM caffeine and 100 nM tolbutamide. The 50 μL of sample solution transferred above was vortexed at a speed of 1,000 rpm for 10 minutes. The experiment from the top end to the base end and the experiment from the base end to the top end should be carried out simultaneously.
5) After adding the buffers into the lower chamber and the upper chamber respectively, the MDCK-MDR1 Transwell culture plate was incubated at 37° C. for 2 hours.
6) After finishing incubating, 50 μL of sample solutions were respectively taken from an administration side (the upper chamber: Ap→Bl flux, the lower chamber: Bl→Ap) and a receiving side (the lower chamber: Ap→Bl flux, the upper chamber Bl→Ap) and added into new 96-well plates, and 4 times volume of […] containing the internal standard was added into the well plates. The internal standard substance contained 100 nM alprazolam, 200 nM caffeine and 100 nM tolbutamide. The solution was vortexed for 10 minutes, and then centrifuged at 3,220 g for 40 minutes. 100 μL of supernatant was sucked and mixed with equal volume of ultrapure water, and then subjected to LC-MS/MS analysis. […]

SMILES | microsomal CLint at 1 μM [1] [µL/min/mg] | half-life at 1 μM [1] [min] | % Remaining(45 min) [1] [%] | efflux ratio at 2 h, 1 μM (MDR1 (P-gp)) | Papp A→B at 2 h, 1 μM (MDR1 (P-gp)) [×10⁻⁶ cm/s] | Papp B→A at 2 h, 1 μM (MDR1 (P-gp)) [×10⁻⁶ cm/s]
O=C1N[C@H]2C[C@H](C2)Oc2ncc(F)cc2[C@H]2CCCN2c2nc3c1cnn3cc2F [Example 2, ((1^3E,1^4E,2^2R,5^1S,5^3S)-1^6,3^5-difluoro-4-oxa-6-aza-1(5,3)-pyrazolo[1,5-a]pyrimidine-3(3,2)-pyridine-2(1,2)-pyrrolidine-5(1,3)-cyclobutancycloheptan-7-one] | 106 | 13 | 9.22 |  |  | 
O=C1N[C@H]2C[C@H](C2)Oc2ncc(F)cc2[C@H]2CCCN2c2ccn3ncc1c3n2 (stereo in doubt) [Positive control 1, reference compound] | 78.6 | 17.6 | 16.90 |  |  | 
C[C@H]1Nc2nc3c(cnn3cc2F)C(=O)N[C@H]2C[C@H](C2)Oc2ncc(F)cc21 [Example 3, (3^1S,3^3S,6^3E,6^4E,8R)-1^5,6^6-difluoro-8-methyl-2-oxo-4,7-diaza-6(3,5)-pyrazolo[1,5-a]pyrimidine-1(2,3)-pyridine-3(1,3)-cyclobutylcyclooctane-5-one] | 32.1 | 43.2 | 39.49 | 4.67 | 11.1 | 51.9
C[C@H]1Nc2ccn3ncc(c3n2)C(=O)N[C@H]2C[C@H](C2)Oc2ncc(F)cc21 [Positive control 2, reference compound] | 73.2 | 18.9 | 11.64 | 19.4 | 3.31 | 64.4
